Laboratory results from patent publication US8076487B2, “Pyridone derivative and herbicide” (Kumiai Chemical Industry Co., Ltd., priority 2006, dated 2011).

Assays:
Format in all cases: in vivo
[1] = test system: Japanese bulrush (Scirpus juncoides Roxb.); experiment: Test Example 1: herbicidal effect by soil application to paddy field; settings: paddy field soil application; active ingredient 1,000 g per 1 hectare; wettable powder added dropwise to water surface the day after sowing; examined on the 21st day after application
Summary of the method: (§1)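 Under greenhouse conditions, seeds sown on puddled paddy soil in 100 cm2 pots under 3 cm of standing water received the test compound; injury was assessed with a standard scoring scheme three weeks (day 21) after treatment.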

[2] = test system: early watergrass (Echinochloa oryzicola Vasing); experiment: as above; settings: paddy field soil application; active ingredient 1,000 g per 1 hectare; wettable powder added dropwise to water surface the day after sowing; examined on the 21st day after application
Summary of the method: as §1

[3] = test system: heartshape false pickerelweed (Monochoria vaginalis (Burm.f.) C.Presl); experiment: as above; settings: paddy field soil application; active ingredient 1,000 g per 1 hectare; wettable powder added dropwise to water surface the day after sowing; examined on the 21st day after application
Summary of the method: as §1

[4] = test system: barnyardgrass (Echinochloa crus-galli (L.) P. Beauv. var. crus-galli); experiment: Test Example 2: herbicidal effect by soil application to upland field; settings: soil surface spray, upland field soil, 1,000 g active ingredient per hectare, 21st day after application
Summary of the method: (§2)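 Soil surface treatment after sowing: wettable powder in water, 1,000 g a.i./ha, spray volume 1,000 L/ha. Greenhouse. Scored on a standard herbicidal scale at day 21.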

[5] = test system: green foxtail (Setaria viridis (L.) P. Beauv.); experiment: as above; settings: soil surface spray, upland field soil, 1,000 g active ingredient per hectare, 21st day after application
Summary of the method: as §2

[6] = test system: slender amaranth (Amaranthus viridis L.); experiment: as above; settings: soil surface spray, upland field soil, 1,000 g active ingredient per hectare, 21st day after application
Summary of the method: as §2

[7] = test system: velvetleaf (Abutilon theophrasti medicus); experiment: as above; settings: soil surface spray, upland field soil, 1,000 g active ingredient per hectare, 21st day after application
Summary of the method: as §2

[8] = test system: barnyardgrass (Echinochloa crus-galli (L.) P. Beauv. var. crus-galli); experiment: Test Example 3: herbicidal effect by application to upland field (foliage treatment); settings: foliage treatment, 1,000 g active ingredient per 1 hectare, 14th day after application, greenhouse
Summary of the method: (§3)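 Effect scores come from a standard grading 14 days after plants, grown from seed for two weeks in field soil in a greenhouse, were sprayed over the top with wettable powder in water at 1,000 g active ingredient per hectare.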

[9] = test system: green foxtail (Setaria viridis (L.) P. Beauv.); experiment: as above; settings: foliage treatment, 1,000 g active ingredient per 1 hectare, 14th day after application, greenhouse
Summary of the method: as §3

[10] = test system: slender amaranth (Amaranthus viridis L.); experiment: as above; settings: foliage treatment, 1,000 g active ingredient per 1 hectare, 14th day after application, greenhouse
Summary of the method: as §3

[11] = test system: velvetleaf (Abutilon theophrasti medicus); experiment: as above; settings: foliage treatment, 1,000 g active ingredient per 1 hectare, 14th day after application, greenhouse
Summary of the method: as §3

Row | Structure (SMILES) | herbicidal effect, Scirpus juncoides Roxb. [1] | herbicidal effect, Echinochloa oryzicola Vasing [2] | herbicidal effect, Monochoria vaginalis (Burm. f.) C. Presl [3] | herbicidal effect (index), Barnyardgrass [4] | herbicidal effect (index), Green Foxtail [5] | herbicidal effect (index), Slender Amaranth [6] | herbicidal effect (index), Velvetleaf [7] | herbicidal effect, Barnyardgrass [8] | herbicidal effect, Green Foxtail [9] | herbicidal effect, Slender Amaranth [10] | herbicidal effect, Velvetleaf [11]
1 | CCCNn1c(C(F)(F)F)ccc(C(=O)C2=C(O)CCCC2=O)c1=O [I-159] | 5 (90% or more of herbicidal effect and crop phytotoxicity) | 5 (90% or more of herbicidal effect and crop phytotoxicity) | 5 (90% or more of herbicidal effect and crop phytotoxicity) | 5 (90% or more of herbicidal effect and crop phytotoxicity) | 5 (90% or more of herbicidal effect and crop phytotoxicity) | 5 (90% or more of herbicidal effect and crop phytotoxicity) | 5 (90% or more of herbicidal effect and crop phytotoxicity) | 5 (90% or more of herbicidal effect and crop phytotoxicity) | 5 (90% or more of herbicidal effect and crop phytotoxicity) | 5 (90% or more of herbicidal effect and crop phytotoxicity) | 5 (90% or more of herbicidal effect and crop phytotoxicity)
2 | CCCCNn1c(C(F)(F)F)ccc(C(=O)C2=C(O)CCCC2=O)c1=O [I-161] | 5 (90% or more of herbicidal effect and crop phytotoxicity) | 5 (90% or more of herbicidal effect and crop phytotoxicity) | 5 (90% or more of herbicidal effect and crop phytotoxicity) | 5 (90% or more of herbicidal effect and crop phytotoxicity) | 5 (90% or more of herbicidal effect and crop phytotoxicity) | 5 (90% or more of herbicidal effect and crop phytotoxicity) | 5 (90% or more of herbicidal effect and crop phytotoxicity) | 5 (90% or more of herbicidal effect and crop phytotoxicity) | 5 (90% or more of herbicidal effect and crop phytotoxicity) | 5 (90% or more of herbicidal effect and crop phytotoxicity) | 5 (90% or more of herbicidal effect and crop phytotoxicity)
3 | CC(C)CNn1c(C(F)(F)F)ccc(C(=O)C2=C(O)CCCC2=O)c1=O [I-162] | 5 (90% or more of herbicidal effect and crop phytotoxicity) | 5 (90% or more of herbicidal effect and crop phytotoxicity) | 5 (90% or more of herbicidal effect and crop phytotoxicity) | 5 (90% or more of herbicidal effect and crop phytotoxicity) | 5 (90% or more of herbicidal effect and crop phytotoxicity) | 4 (70 to less than 90% of herbicidal effect and crop phytotoxicity) | 5 (90% or more of herbicidal effect and crop phytotoxicity) | 5 (90% or more of herbicidal effect and crop phytotoxicity) | 5 (90% or more of herbicidal effect and crop phytotoxicity) | 5 (90% or more of herbicidal effect and crop phytotoxicity) | 5 (90% or more of herbicidal effect and crop phytotoxicity)
4 | O=C1CCCC(O)=C1C(=O)c1ccc(C(F)(F)F)n(NCC2CC2)c1=O [I-164] | 5 (90% or more of herbicidal effect and crop phytotoxicity) | 5 (90% or more of herbicidal effect and crop phytotoxicity) | 5 (90% or more of herbicidal effect and crop phytotoxicity) | 5 (90% or more of herbicidal effect and crop phytotoxicity) | 5 (90% or more of herbicidal effect and crop phytotoxicity) | 5 (90% or more of herbicidal effect and crop phytotoxicity) | 5 (90% or more of herbicidal effect and crop phytotoxicity) | 5 (90% or more of herbicidal effect and crop phytotoxicity) | 5 (90% or more of herbicidal effect and crop phytotoxicity) | 5 (90% or more of herbicidal effect and crop phytotoxicity) | 5 (90% or more of herbicidal effect and crop phytotoxicity)
5 | O=C1CCCC(O)=C1C(=O)c1ccc(C(F)(F)F)n(NCCCF)c1=O [I-168] | 5 (90% or more of herbicidal effect and crop phytotoxicity) | 5 (90% or more of herbicidal effect and crop phytotoxicity) | 5 (90% or more of herbicidal effect and crop phytotoxicity) | 5 (90% or more of herbicidal effect and crop phytotoxicity) | 5 (90% or more of herbicidal effect and crop phytotoxicity) | 5 (90% or more of herbicidal effect and crop phytotoxicity) | 5 (90% or more of herbicidal effect and crop phytotoxicity) | 5 (90% or more of herbicidal effect and crop phytotoxicity) | 5 (90% or more of herbicidal effect and crop phytotoxicity) | 5 (90% or more of herbicidal effect and crop phytotoxicity) | 5 (90% or more of herbicidal effect and crop phytotoxicity)
6 | COCCNn1c(C(F)(F)F)ccc(C(=O)C2=C(O)CCCC2=O)c1=O [I-169] | 5 (90% or more of herbicidal effect and crop phytotoxicity) | 5 (90% or more of herbicidal effect and crop phytotoxicity) | 5 (90% or more of herbicidal effect and crop phytotoxicity) | 5 (90% or more of herbicidal effect and crop phytotoxicity) | 5 (90% or more of herbicidal effect and crop phytotoxicity) | 5 (90% or more of herbicidal effect and crop phytotoxicity) | 5 (90% or more of herbicidal effect and crop phytotoxicity) | 5 (90% or more of herbicidal effect and crop phytotoxicity) | 5 (90% or more of herbicidal effect and crop phytotoxicity) | 5 (90% or more of herbicidal effect and crop phytotoxicity) | 5 (90% or more of herbicidal effect and crop phytotoxicity)
7 | O=C1CCCC(O)=C1C(=O)c1ccc(C(F)(F)F)n(NCC2CCCO2)c1=O (centres unmarked) [I-170] | 5 (90% or more of herbicidal effect and crop phytotoxicity) | 5 (90% or more of herbicidal effect and crop phytotoxicity) | 5 (90% or more of herbicidal effect and crop phytotoxicity) | 5 (90% or more of herbicidal effect and crop phytotoxicity) | 5 (90% or more of herbicidal effect and crop phytotoxicity) | 5 (90% or more of herbicidal effect and crop phytotoxicity) | 5 (90% or more of herbicidal effect and crop phytotoxicity) | 5 (90% or more of herbicidal effect and crop phytotoxicity) | 4 (70 to less than 90% of herbicidal effect and crop phytotoxicity) | 5 (90% or more of herbicidal effect and crop phytotoxicity) | 5 (90% or more of herbicidal effect and crop phytotoxicity)
